Assay results from US20250073354A1, “COMPOSITIONS AND METHODS FOR DELIVERY OF AGENTS TO INNER EAR” (University of Rochester, priority 2021, published 2025).
“Also recorded” adds a separate entry of the source.

Experiments:
[1] = mouse, in vivo
Procedure: Briefly, mice were anesthetized with a mixture of Ketamine/Xylazine (100 mg/kg, 10 mg/kg, respectively), after depth of anesthesia was confirmed by the cessation of reflexes, the incision area was properly shaved and sterilized with the aid of ethanol 70% swabs (Vitrex Medical A/S Herlev, DK), followed by iodine solution (Povidone Iodine 7,5% Henry Schein, Melville, NY, USA) applicated using cotton swabs. Before the onset of surgery, analgesics were applied, Lidocaine (0.05 ml, 0.2 mg/ml) was applied in the incision site and Buprenorphine (0.05 mg/kg) injected subcutaneously for post-surgical analgesia. After performing the skin incision around the occipital crest, the neck muscles were separated to reveal the CM underneath. […]
Immediately after the CM cannulation procedure, animals were moved to MRI scanner and head movement during scanning was minimized by restraining the animals on an MR-compatible stereotactic holder with ear bars. Body temperature was maintained at 37±0.5° C. with a thermostatically controlled waterbed and monitored, along with the respiratory rate by an MR compatible remote monitoring system (SA Instruments, NY, USA). […] Every 3D-CISS image was calculated as a maximum intensity projection from 4 realigned 3D-TrueFISP volumes with 4 orthogonal phase encoding directions (TR/TE 3.9/1.95 ms, Nex 2, FA 50°, FOV 19.2×12.8×12.8 mm, Matrix 192×128×128, BW 150 kHz). […]
Both DCE-MRI and CT time series data were motion corrected using Advanced Normalization Tools (ANTs ver.2.1.0) (Avants et al., 2008; Avants et al., 2011). Motion corrected time series in MRI images were converted into percent change from baseline-time series, calculated as the percent signal change from the averaged signal of baseline images.

[2] = CT time series of CSF tracer transport to the cochlea after intracisternal infusion; format: in vivo, mouse
Procedure: During the CM cannulation procedure a custom-made head bar was fixed on the top of the animal skull. The head bar was designed to minimize undesired movements during the image acquisition (Yoshida et al., 2016), and fixed to an animal holder. […] Animal's respiration was monitored by using Biovet software. CT scans were performed with the Vector4CT system (MILabs, Utrecht, Netherlands) and scanning of the entire mouse head was performed in 4.56 min at an isotropic spatial resolution of 20 μm. The time series CT scanning protocol comprised one baseline scan (4.5 min) followed by intracisternal infusion of Omnipaque (350 mg I/ml, 1 μL/min, 10 μL, GE healthcare). Scans continued over 6 measurements (30 min) after intracisternal infusion of Omnipaque.
The time-intensity data was extracted using ITK snap with the ROIs described above after background subtraction and then normalized to maximal cisterna magna intensity. Dimensions of cochlear aqueduct were measured using the #X feature in ITK snap for #four animals. Distances between ROIs were calculated using their spatial coordinates.
To solve the equation (#ref), inventors implemented a simple finite difference scheme in Python (#ref) using NumPy and Scipy (#ref). Estimation of the dispersion coefficient was achieved by minimizing the L2-norm prediction error, using Scipy (#ref) E: […]

Row | Time activity curves for tracer influx in mice lacking aqp4 [1] | Time to reach 50 max [1] | Tracer distribution to cochlea [1] | Compound | Tracer concentration in scala vestibuli or cochlear nerve ([2]; during the 30 min of scanning) | Tracer distribution to scala tympani ([2]; intracisternal delivery, continuous CT scanning)
1 | did not differ from wild type animals | significantly higher in the cochlea | reaches the cochlea | O=C([O-])CN1CCN(CC(=O)[O-])CCN([C@H](CO)[C@H](O)CO)CCN(CC(=O)[O-])CC1.[Gd+3] (racemic) [Gadovist, gadobutrol] |  | 
2 |  |  |  | CC(=O)N(CC(O)CO)c1c(I)c(C(=O)NCC(O)CO)c(I)c(C(=O)NCC(O)CO)c1I (centres unmarked) [Omnipaque] | No clear rise; also recorded: no significant tracer arrives | reaches the base and middle region of the scala tympani
